Values after ≈ are worked out from the molar mass of the structure shown. Where two headings read alike, the source gives them in different places.
Columns and labels:
Format in all cases: cell-based
Klebsiella KP 342 = test: General MIC protocol, Gram negative; conditions: KP342; Klebsiella KP 342; read-out: MIC
Description: (§1) General Minimum Inhibitory Concentration (MIC) Protocol
(§2) 1. Grow up cultures of bacterial strains to be tested overnight.
(§3) 2. Dilute down overnight cultures to concentration of 1×10^6 bacteria/ml (OD0.01) in Tryptic soy broth (TSB).
(§4) 3. Add 100 μl of TSB media to column 2-column 12 in 96 well plate (keeping column 1 clear).
(§5) 4. Make up compound to a concentration of 64 μg/ml in water (or alternatively to twice the chosen maximum concentration to be tested).
(§6) 5. Add 100 μl of antibiotic solution to the 1st and 2nd columns.
(§7) 6. Using a multichannel pipette take 100 μl from the 2nd column wells and pipette into 3rd column wells and repeat down the 96 well plate (remembering to include controls i.e. uninfected media and media with no antibiotic).
(§8) 7. To each well (except uninfected control row H) add 100 μl of bacterially infected media at a concentration of 1×10^6/ml.
(§9) 8. This dilutes down the concentration of the antibiotic by half (top dose is therefore 32 μg/ml in column 1) and also gives you a starting bacterial concentration of 5×10^5/ml.
(§10) 9. Wrap plate with parafilm to prevent evaporation.
(§11) 10. Leave at desired temperature (37° C. unless specified elsewhere) for 20 hours.
(§12) 11. Next day check plates for growth and measure optical density (i.e. absorbance) at a wavelength of 600 nm (OD600).
(§13) An example of such a plate is shown in FIG. 1 where column A represents wells that receive the top dose 100 μl; column B represents wells that receive the top dose 100 μl+100 μl TSB; and column C represents wells that receive 100 μl TSB. Row H which is marked by a box labelled D represents a blank where the cells receive no bacteria.
The minimum inhibitory concentration (MIC) was measured using the general MIC protocol given above.

Psueudomonas GH12 = test: General MIC protocol, Gram negative; conditions: Pseudomonas
Description: as §1, §2, §3, §4, §5, §6, §7, §8, §9, §10, §11, §12, §13
The activity of the compound designated PP-A148 was tested against an extended panel of Klebsiella and Pseudomonas Gram-negative bacterial strains that have proven drug resistant difficult to treat. […] The minimum inhibitory concentration (MIC) was measured using the general MIC protocol given above.

K. pneumonia NCTC 13443 = test: General MIC protocol, Gram negative; conditions: Klebsiella pneumoniae, NCTC13443; K. pneumonia NCTC 13443; read-out: MIC
Description: as §1, §2, §3, §4, §5, §6, §7, §8, §9, §10, §11, §12, §13

K. pneumonia NCTC 13438 = test: General MIC protocol, Gram negative; conditions: Klebsiella pneumoniae, NCTC13438; K. pneumonia NCTC 13438; read-out: MIC
Description: as §1, §2, §3, §4, §5, §6, §7, §8, §9, §10, §11, §12, §13

K. pneumonia NCTC 13439 = test: General MIC protocol, Gram negative; conditions: Klebsiella pneumoniae, NCTC13439; K. pneumonia NCTC 13439; read-out: MIC
Description: as §1, §2, §3, §4, §5, §6, §7, §8, §9, §10, §11, §12, §13

K. pneumonia MGH 78578 = test: General MIC protocol, Gram negative; conditions: Klebsiella pneumoniae, MGH78578; K. pneumonia MGH 78578; read-out: MIC
Description: as §1, §2, §3, §4, §5, §6, §7, §8, §9, §10, §11, §12, §13

K. pneumonia KP16 = test: General MIC protocol, Gram negative; conditions: Klebsiella pneumoniae; K. pneumonia KP16; read-out: MIC
Description: as §1, §2, §3, §4, §5, §6, §7, §8, §9, §10, §11, §12, §13

P. aeruginosa PA01 = test: General MIC protocol, Gram negative; conditions: Pseudomonas aeruginosa
Description: as §1, §2, §3, §4, §5, §6, §7, §8, §9, §10, §11, §12, §13

K. pneumonia NCTC 51851 = test: General MIC protocol, Gram negative; conditions: Klebsiella pneumoniae, NCTC51851; K. pneumonia NCTC 51851; read-out: MIC
Description: as §1, §2, §3, §4, §5, §6, §7, §8, §9, §10, §11, §12, §13

EMRSA-15 = test: General MIC protocol, Gram positive panel
Description: as §1, §2, §3, §4, §5, §6, §7, §8, §9, §10, §11, §12, §13

[1] = test system: methicillin sensitive S. aureus ATTC 9144 (NCTC 6571); test: General MIC protocol, Gram positive panel; conditions: Staphylococcus aureus, MSSA / NCTC 6571; MSSA 9144
Description: as §1, §2, §3, §4, §5, §6, §7, §8, §9, §10, §11, §12, §13

[2] = test system: E. faecalis VRE NCTC 12201; test: General MIC protocol, Gram positive panel
Description: as §1, §2, §3, §4, §5, §6, §7, §8, §9, §10, §11, §12, §13

E. faecalis VSE NCTC 775 = test: General MIC protocol, Gram positive panel; conditions: Enterococcus faecalis, NCTC775; VSE 775
Description: as §1, §2, §3, §4, §5, §6, §7, §8, §9, §10, §11, §12, §13

[3] = test system: E. faecium VRE NCTC 12204; test: General MIC protocol, Gram positive panel
Description: as §1, §2, §3, §4, §5, §6, §7, §8, §9, §10, §11, §12, §13

EMRSA-16 = test: General MIC protocol, Gram positive panel
Description: as §1, §2, §3, §4, §5, §6, §7, §8, §9, §10, §11, §12, §13

K. pneumonia NCTC 13368 = test: General MIC protocol, Gram negative; conditions: Klebsiella pneumoniae, NCTC13368
Description: as §1, §2, §3, §4, §5, §6, §7, §8, §9, §10, §11, §12, §13

K. pneumonia M6 = test: General MIC protocol, Gram negative; conditions: Klebsiella pneumoniae; KP-M6
Description: as §1, §2, §3, §4, §5, §6, §7, §8, §9, §10, §11, §12, §13

A. baumannii NCTC 17978 = test: General MIC protocol, Gram negative; conditions: Acinetobacter baumannii, NCTC17978
Description: as §1, §2, §3, §4, §5, §6, §7, §8, §9, §10, §11, §12, §13

P. aeruginosa NCTC 13437 = test: General MIC protocol, Gram negative; conditions: Pseudomonas aeruginosa, NCTC13437
Description: as §1, §2, §3, §4, §5, §6, §7, §8, §9, §10, §11, §12, §13

A. baumannii AYE = test: General MIC protocol, Gram negative; conditions: Acinetobacter baumannii
Description: as §1, §2, §3, §4, §5, §6, §7, §8, §9, §10, §11, §12, §13

[4] = test system: HeLa (Cervical cancer cell line); test: MTT cytotoxicity assay; conditions: Homo sapiens, MTT, 24 h continuous exposure, read-out: IC50 HeLa (Cervical cancer cell line)
Description: (§14) Two immortalised human cell lines, HeLa and WI38 were used for cytotoxicity screening of the compounds. HeLa is a human cervical cancer cell line and WI38 is a normal healthy cell line. The cell lines were obtained from the American Type Culture Collection. The cell-lines were maintained in monolayer culture in 75 cm2 flasks (TPP, Switzerland) under a humidified 5% CO2 atmosphere at 37° C. The HeLa cell line was maintained in Dulbecco's Modified Eagles Media (DMEM; Invitrogen) supplemented with foetal bovine serum (10% v/v; Invitrogen), L-glutamine (2 mM; Invitrogen), non-essential amino acids (1×; Invitrogen) and Penicillin-Streptomycin (1% v/v, Invitrogen). For WI38, Eagle's Minimum Essential Medium, and Penicillin-Streptomycin (1% v/v, Invitrogen) and foetal bovine serum (10%, nvitrogen) was used. For passaging, cells were washed with phosphate buffered saline [PBS] (GIBCO 14040, Invitrogen, UK), incubated with trypsine (GIBCO 25300, Invitrogen, UK), and re-seeded into fresh medium. For seeding, cells were counted using a Neubauer haemocytometer (Assistant, Germany) by microscopy (Nikon, USA) on a non-adherent suspension of cells that were washed in PBS, trypsinised, centrifuged at 8° C. at 8000 rpm for 5 min and re-suspended in fresh medium.
(§15) The cells were grown in normal cell culture conditions at 37° C. under a 5% CO2 humidified atmosphere using appropriate medium. The cell count was adjusted to 10^5 cells/ml/ and 20,000 cells were added per well. The cells were incubated for 24 hours and 1 μl of the appropriate inhibitor concentrations were to the wells in triplicates. After 24 h of continuous exposure to each compound, the cytotoxicity was determined using the MIT (3-(4,5-Dimethylthiazol-2-yl)-2,5-diphenyltetrazolium bromide) (Lancaster Synthesis Ltd, UK) colorimetric assay. Absorbance was quantified by spectrophotometry at λ=570 nm (Envision Plate Reader, PerkinElmer, USA). IC50 values were calculated by a dose-response analysis using the Prism Graphpad Prism® software. The cytotoxicity results are shown below in Table 12.

WI38 (Healthy cell line) = test: MTT cytotoxicity assay; conditions: Homo sapiens, WI-38; MTT; 24 h continuous exposure; highest concentration tested 20 μM; read-out: IC50 WI38 (Healthy cell line)
Description: as §14, §15

## C[C@H]1COc2c(N3CCN(C)CC3)c(F)cc3c(=O)c(C(=O)O)cn1c23 [Levofloxacin, levofloxacin]
Klebsiella KP 342
  MIC: 0.5 to 1 mg/L (≈ 1.38 to 2.77 µM)
Psueudomonas GH12
  MIC: > 16 mg/L
K. pneumonia NCTC 13443
  MIC: > 16 mg/L
K. pneumonia NCTC 13438
  MIC: > 16 mg/L
K. pneumonia NCTC 13439
  MIC: 16 mg/L (≈ 44.3 µM)
K. pneumonia MGH 78578
  MIC: 1 mg/L (≈ 2.77 µM)
K. pneumonia KP16
  MIC: 8 to 16 mg/L (≈ 22.1 to 44.3 µM)
P. aeruginosa PA01; PA01, read-out: MIC
  MIC: 4 mg/L (≈ 11.1 µM)
K. pneumonia NCTC 51851
  MIC: > 16 mg/L

## CCN(CC)C(=O)c1cc2cc(NC(=O)c3cc(NC(=O)CCCOc4cc5c(cc4OC)C(=O)N4CCC[C@H]4C=N5)cn3C)ccc2o1 [PP-B27, (S)—N-(2-(diethylcarbamoyl)benzofuran-5-yl)-4-(4-((7-methoxy-5-oxo-2,3,5,11a-tetrahydro-1H-benzo[e]pyrrolo[1,2-a][1,4]-diazepin-8-yl)oxy)butanamido)-1-methyl-1H-pyrrole-2-carboxamide]
EMRSA-15
  MIC: 0.25 mg/L (≈ 0.374 µM)
[1]
  MIC: < 0.125 mg/L
[2]
  MIC: < 0.125 mg/L
E. faecalis VSE NCTC 775
  MIC: 0.25 mg/L (≈ 0.374 µM)
[3]
  MIC: < 0.125 mg/L
EMRSA-16
  MIC: 0.5 mg/L (≈ 0.748 µM)
K. pneumonia NCTC 13368
  MIC: 64 mg/L (≈ 95.7 µM)
K. pneumonia M6
  MIC: 8 mg/L (≈ 12 µM)
A. baumannii NCTC 17978
  MIC: 4 mg/L (≈ 5.98 µM)
P. aeruginosa PA01; PA01, PA01
  MIC: 128 mg/L (≈ 191 µM)
P. aeruginosa NCTC 13437
  MIC: 32 mg/L (≈ 47.9 µM)
A. baumannii AYE
  MIC: 4 mg/L (≈ 5.98 µM)
[4]
  IC50: > 20 µM
WI38 (Healthy cell line)
  IC50: > 20 µM
